These results are taken from patent publication US6518012B1, “Method for regulating the expression of MHC antigens and CD40 by inhibitors of histone deacetylation” (Health Research, Inc., priority 1999, dated 2003).

Data set [1] relates to MHC class II protein on the cell surface. The data set is described as follows: Cell surface MHC class II protein by flow cytometry on Colon 26 and J558. Format: cell-based, mouse. To be noted: J558; G2/M arrest experiment with nocodazole; data not shown. As to the method: To determine the effect of TSA on cell surface protein expression, the J558 cell line was subjected to flow cytometric analyses as follows. Flow cytometric analyses were conducted by standard methods using cells fixed with 1.0% paraformaldehyde and analyzed on the FACScan (Becton Dickinson). Cell cycle analyses were carried out by flow cytometry with PI staining of genomic DNA. Cells were fixed and permeablized in methanol, treated with RNaseA and analyzed for DNA content by determination of FL3-area on the FACScan. The FL3-area data were analyzed with the ModFit software for determination of the percent cells in each phase of the cell cycle. In some cases, fluorescein isothiocyanate (FITC)-conjugated antibody staining was conducted prior to PI treatment and surface staining was analyzed as a function of cell cycle phase. Apoptosis was analyzed by staining with annexin-V directly conjugated with either FITC or RPE and by sub-G0 analysis of DNA staining. Expression levels without treatment are shown as shaded peaks, IFNγ treated cell expression is plotted by a thin line while the level of expression on TSA treated cells is represented by a heavy line. Isotype controls were analyzed and, in each case, fell on or below the levels shown for control cells. MC and Colon 26 treatments are shown for 50 nM TSA for 48 hours, while J558 treatment is for 25 nM TSA for 24 hours. All IFNγ treatments were 100 U/ml for the same length of time as the corresponding TSA treatment. The percent of cells staining positive for MHC class II or CD40 expression is indicated below each histogram. Since all cells were positive for MHC class I expression, the number under the histogram represents -fold change of expression calculated from the mean channel-shift after treatment relative to untreated cells. Data are representative of at least three independent experiments. Of the 13 markers analyzed on J558 cells, only class I, II and CD40 were enhanced, while levels of several non-expressed antigens were not elicited (including CD25, B7 integrin, CD40L, H2K^k and IA^k) while other markers, which were expressed, were not altered (including CD44, CD54, CD80, CD86 and CD119) by TSA treatment. […] The highest expression (21-fold induction) was achieved on J558 cells after 24 hr by 25 nM TSA. […] The separation of control and IFNγ curves in the CD40, J558 experiment depicted in FIG. 8 represents a mean channel fluorescence difference of only 1.3 and was not seen on independent replicates of the experiment.
TSA has been described as a cell cycle inhibitor that induces both G1 and especially G2/M blocks (Bestor, 1998, Nature, 393:311-312; Yoshida et al., 1988, Exp. Cell Res. 177:122-131). MHC class II, but not class I, has been reported (Inokoshi et al., 1999, Biochem. Biophys. Res. Commun., 256:372-376; Monroe et al., 1983, J. Immunol., 130:626-631) to be regulated differentially during the cell cycle. Therefore the cell cycle of the cell lines used in the present invention was analyzed by DNA staining and flow cytometry with each of the treatment conditions under study. […] Two additional methods were used to analyze cell cycle effects on MHC expression. Since it has been reported that TSA arrests cell cycle mainly in G2/M, and class II has been reported to accumulate in G2/M (Monroe et al., 1983, supra), experiments were designed to essentially arrest 100% of J558 cells in G2/M with nocodazole. […] From the above experiments, it can be concluded that DAIs have specific effects on MHC class I and II, and CD40 gene expression, which is likely not a result of its action on the cell cycle.
In general terms: A flow cytometer gives signals particle by particle.

In data set [2] the test system is cell lines employed. The data set can be described thus: Toxicity of deacetylase inhibitors (lift-off, trypan-blue dye exclusion, laddering, PI/annexin-V flow cytometry). Format: cell-based. The following applies: 1 mM Na-butyrate for 12-48 hr. As for the experimental part:
Two representative DAIs, TSA and NaBu were used for this illustration. […] In some experiments, 100 U/ml γ-IFN was added with and without the deacetylase inhibitor.

Data set [3] has as its system HLA-DRα mRNA. The data set can be described thus: HLA-DRα mRNA by standard PCR and real-time PCR in human cell lines JAR and SK-N-MC. The class given is cell-based. The following applies: JAR. As to the method:
(§1) To determine the effect of DAIs on HLA-DRα mRNA, cytoplasmic RNA was isolated from untreated and treated human trophoblast cell line JAR using standard techniques (RNeasy System from Qiagen). Standard PCR was performed using primers for DR and CIITA (Murphy et al., 1998, Reprod Dev., Chin et al., 1994, Immunity 1:687-697). Other primers used included human and mouse GAPDH (Clontech) and forward primer 5′-[…]-3′ (SEQ ID NO:25) and reverse primer 5′-[…]-3′ (SEQ ID NO:26) for mouse CIITA. PCR products were amplified with GOLD Taq for 10 min at 95° C., then 95° C. for 30 sec, 60° C. for 60 sec (25-45 cycles), then an extension at 60° C. for 10 min.
(§2) Oligonucleotide primers and TaqMan 5′-6-FAM and 3′-TAMRA-labeled probes were synthesized in the RPCI Biopolymer Facility. Primer and probe sequences are listed under Sequence Listing and also in FIG. 9. Sequences were designed using standard software (PrimerExpress software, PE Biosystems) except for human GAPDH.
(§3) Realtime PCR reactions contained TaqMan Universal PCR Master Mix (PE Biosystems), primers at 300 nM, and probes at optimal concentrations (150-225 nM depending on gene). Reactions were carried out on an ABI PRISM 7700 Sequence Detection System (PE Biosystems). Cycling conditions were 50° C. for 2 min, 95° C. for 10 min, then 60 cycles of 95° C. for 15 sec, 60° C. for 1 min. PCR samples were run in triplicate. The detection system and quantitative PCR was carried out as described by Williamson et al. (1995, Genet Res. 65:83-93). The threshold cycle number CT corresponded to the cycle number, at which the fluorescent emission reaches 10 standard deviations above the mean fluorescent emission, measured during the early ‘baseline’ cycles of the PCR. The CT values for triplicates were averaged and normalized to GAPDH levels. […] Assuming reverse transcription efficiencies were approximately the same for each sample, relative amounts of mRNA using the comparative CT method. Fold changes in mRNA levels were calculated as 2^x where x=the difference between normalized CT values of the control and experimental samples.
To evaluate the effects of DAIs on human cells, the human trophoblast cell line was treated with 100 nM Trichostatin A (TSA), IFNγ (100 U/ml) or a combination of TSA and IFNγ for 12 hours. RNA was isolated and real time quantitative RT-PCR was carried out. The fold increase in mRNA over the control was calculated.
Background: Quantitative PCR measures a nucleic acid by following its amplification.

The subject of data set [4] is class II transactivator (CIITA) mRNA. The data set is described as follows: CIITA mRNA by standard PCR and real-time PCR in human cell lines JAR and SK-N-MC. Format: cell-based. As to the method: as §1, §2, §3
[…] RNA was isolated and real time quantitative RT-PCR was carried out. The fold increase in mRNA over the control was calculated.

Data set [5] relates to HLA-DRα mRNA. The data set can be described thus: HLA-DRα mRNA by standard PCR and real-time PCR in human cell lines JAR and SK-N-MC. Format: cell-based.
Data set [6] has as its system IAα mRNA. The data set can be described thus: MHC class II (IAα) mRNA by RT-PCR and real-time PCR in mouse tumor models. Format: cell-based. As for the experimental part:
as §1
(§4) In order to obtain more quantitative information on fold changes in DR and CIITA after treatment with the deacetylase inhibitors, a real time fluorescence technique capable of quantitating low copy numbers of transcripts was carried out as follows. Oligonucleotide primers and TaqMan 5′-6-FAM and 3′-TAMRA-labeled probes were synthesized in the RPCI Biopolymer Facility. Primer and probe sequences are listed under Sequence Listing and also in FIG. 9. Sequences were designed using standard software (PrimerExpress software, PE Biosystems) except for human GAPDH.
(§5) Realtime PCR reactions contained TaqMan Universal PCR Master Mix (PE Biosystems), primers at 300 nM, and probes at optimal concentrations (150-225 nM depending on gene). Reactions were carried out on an ABI PRISM 7700 Sequence Detection System (PE Biosystems). Cycling conditions were 50° C. for 2 min, 95° C. for 10 min, then 60 cycles of 95° C. for 15 sec, 60° C. for 1 min. PCR samples were run in triplicate. The detection system and quantitative PCR was carried out as described by Williamson et al. (1995, Genet Res. 65:83-93). The threshold cycle number CT corresponded to the cycle number, at which the fluorescent emission reaches 10 standard deviations above the mean fluorescent emission, measured during the early ‘baseline’ cycles of the PCR. The CT values for triplicates were averaged and normalized to GAPDH levels. […] In such cases, in order to calculate a minimum fold change for other samples in the same group, the CT value was arbitrarily set at 40. […] Assuming reverse transcription efficiencies were approximately the same for each sample, relative amounts of mRNA using the comparative CT method. Fold changes in mRNA levels were calculated as 2^x where x=the difference between normalized CT values of the control and experimental samples.
(§6) To determine if the effect of DAIs on MHC class II was manifested in other tumors and in different species, the effect of TSA was tested on four commonly used mouse tumor models: the SaI fibrosarcoma, the Colon 26 adenocarcinoma, the J558 plasmacytoma and the P815 mastocytoma. TSA induced class II in all four mouse tumors examined, while the effects of IFNγ were variable (FIG. 4). Data presented for each cell line represents optimal incubation time and concentration of TSA and is compared with 100 U/ml of IFNγ at the same time point. Numbers over bars represents fold changes. […] Colon 26 and J558 that differed strikingly in their reactivity to IFNγ were selected for further evaluation. RT-PCR and real time PCR was used to examine induction of CIITA and IAα by TSA and IFNγ. A20, a constitutively positive B cell line was used as a positive control. The results are shown in FIGS. 5A-D. The numbers over bars represent fold changes. […] Since the classical IFNγ inducible genes IRF-1 and GBP as well as MHC class I mRNA were not induced by IFNγ in J558 (data not shown), this cell line may have a signaling defect in the IFNγ pathway. Unexpectedly however, and unlike either the MC or Colon 26 cells, TSA induced both CIITA (102-fold) and Iα (537-fold) in J558 as shown in FIGS. 5B and 5D.

The test system of data set [7] is CIITA mRNA. The data set is described as follows: CIITA mRNA by RT-PCR and real-time PCR in mouse tumor cells Colon 26 and J558. Format: cell-based. As to the method: as §1, §4, §5, §6

In the case of `COC(=O)Nc1nc2ccc(C(=O)c3cccs3)cc2[nH]1` [Nocodazole, nocodazole], the “MHC class II positive cells” value in data set [1] was determined as 23%.

`CCCC(=O)[O-].[Na+]` [sodium butyrate]: in data set [2], the toxicity result was “non toxic”. The “fold increase in HLA-DRα (MHC class II) mRNA over the control” value in data set [3] (real time quantitative RT-PCR, 100 nM TSA, IFNγ 100 U/ml or combination for 12 hours, sodium butyrate (FIG. 2)) is 12 fold. For the same molecule, the “levels of mRNA for DR” value in data set [3] (standard PCR, 100 nM or 250 nM TSA or 1 mM sodium butyrate) is “substantial increase”. Moreover, the “increase in class II transactivator (CIITA)” value in data set [4] (JAR, real time PCR, sodium butyrate (FIG. 2)) is listed as “no increase”. The CIITA transcription entry in data set [4] (JAR, standard PCR at 35 cycles, 100 nM or 250 nM TSA or 1 mM sodium butyrate) is “undetectable”; in data set [4] (SK-N-MC, routine RT-PCR at 35 cycles, 100 nM TSA 24 hours, 1 mM NaBu 48 hours, IFNγ), “undetectable”. Further, the “CIITA mRNA fold change” value in data set [4] (MC cells, real time PCR up to 60 cycles, 100 nM TSA 24 hr, NaBu 1 mM 48 hr, IFNγ) is “no activation”. The “fold increase in expression of DR” value in data set [5] (MC cells, real time PCR, 100 nM TSA 24 hr, NaBu 1 mM 48 hr, IFNγ any concentration or time point) stood at 88 fold. Besides, the “levels of mRNA for HLA-DRα (DR)” value in data set [5] (SK-N-MC, RT-PCR, 100 nM TSA 24 hours, 1 mM NaBu 48 hours, IFNγ) was “substantial increase”.

B1: IFNγ: gamma-interferon, cytokine used as comparator at 100 U/ml (protein, UniProt P01579 24-161, looked up)
Interferon gamma: QDPYVKEAENLKKYFNAGHSDVADNGTLFLGILKNWKEESDRKIMQSQIVSFYFKLFKNFKDDQSIQKSVETIKEDMNVKFFNSNKKKRDDFEKLTNYSVTDLNVQRKAIHELIQVMAELSPAAKTGKRKRSQMLFRG
As to B1, the “Iα (class II) fold induction” value in data set [6] is on record as “did not activate”. In addition, the CIITA fold induction entry in data set [7] is recorded as “did not activate”.
